Tests used:
[1] = tested on: Plasmodium falciparum; assay: Antiplasmodial activity against chloroquine resistant Plasmodium falciparum 7GB assessed as inhibition of parasite growth incubated for 48 hrs by SYBR green I staining based fluorescence assay; format: functional, organism-based
[2] = tested on: Plasmodium falciparum; assay: Antiplasmodial activity against Plasmodium falciparum 3D7 assessed as inhibition of parasite growth incubated for 48 hrs by SYBR green I staining based fluorescence assay; format: functional, organism-based; conditions: 3D7, 48 h
[3] = tested on: Plasmodium falciparum; assay: Antiplasmodial activity against chloroquine resistant Plasmodium falciparum W2 infected in erythrocytes (unknown origin) assessed as inhibition of parasite growth incubated for 90 hrs by SYBR green staining based fluorescence assay; format: functional, organism-based; conditions: W2, Erythrocyte
[4] = tested on: Plasmodium falciparum; assay: Antiplasmodial activity against chloroquine sensitive Plasmodium falciparum 3D7 infected in erythrocytes (unknown origin) assessed as inhibition of parasite growth incubated for 90 hrs by SYBR green staining based fluorescence assay; format: functional, organism-based; conditions: 3D7, Erythrocyte
[5] = Inhibition of Plasmodium falciparum plasmepsin II assessed as substrate cleavage preincubated with enzyme for 5 mins followed by substrate addition and measured immediately by spectrophotometric analysis
[6] = tested on: Plasmodium falciparum; assay: Inhibition of Plasmodium falciparum 3D7 cytochrome bc1 oxidoreductase using decylubiquinol as substrate at 70 uM relative to control
[7] = Cytotoxicity against human HepG2 cells assessed as reduction in cell viability incubated for 24 hrs by MTT assay; format: toxicity, cell-based
[8] = tested on: Plasmodium falciparum; assay: Antiplasmodial activity against Plasmodium falciparum 3D7 infected in erythrocytes (unknown origin) assessed as inhibition of parasite growth by SYBR green staining based fluorescence assay; format: functional, organism-based; conditions: 3D7, Erythrocyte
[9] = Selectivity index, ratio of CC50 for cytotoxicity against human HepG2 cells to IC50 for […] activity against Plasmodium falciparum 3D7; format: toxicity, cell-based; conditions: read-out: Ratio CC50/IC50
[10] = tested on: Plasmodium falciparum; assay: Antiplasmodial activity against multidrug resistant Plasmodium falciparum Dd2 infected in erythrocytes (unknown origin) incubated for 72 hrs by SYBR green I staining based fluorescence assay; format: functional, organism-based; conditions: Dd2, Erythrocyte
[11] = tested on: Plasmodium berghei; assay: Antimalarial activity against GFP-expressing Plasmodium berghei ANKA infected in mouse assessed as survival rate at 50 mg/kg, sc pre-infected for 2 hrs followed by compound addition; format: functional
[12] = Cytotoxicity against human PBMC cells assessed as inhibition of cell growth incubated for 24 hrs by Celltiter-Glo assay; format: toxicity, cell-based
[13] = tested on: Plasmodium berghei; assay: Antimalarial activity against GFP-expressing liver stage Plasmodium berghei ANKA sporozoites infected in human HepG2 cells assessed as inhibition of parasite growth incubated for 2 days by imaging analysis; format: functional, organism-based; conditions: HepG2, 48 h
[14] = Inhibition of Plasmodium falciparum plasmepsin X
[15] = Inhibition of Plasmodium falciparum plasmepsin IV assessed as substrate cleavage preincubated with enzyme for 5 mins followed by substrate addition and measured immediately by spectrophotometric analysis
[16] = tested on: Plasmodium falciparum; assay: Antiplasmodial activity against Plasmodium falciparum RKL-9 stage I-V gametocytes assessed as reduction in parasitemia incubated for 72 hrs by giemsa staining based analysis; conditions: RKL-9, 72 h
[17] = Inhibition of Plasmodium falciparum plasmepsin V
[18] = tested on: Plasmodium falciparum; assay: Antiplasmodial activity against chloroquine sensitive Plasmodium falciparum D6 infected in erythrocytes (unknown origin) incubated for 72 hrs by SYBR green I staining based fluorescence assay; format: functional, organism-based; conditions: D6, Erythrocyte
[19] = tested on: Plasmodium berghei; assay: Antimalarial activity against chloroquine resistant Plasmodium berghei NK-65 infected RBC infected in Swiss albino mouse assessed as survival rate at 100 mg/kg, sc pre-infected for 48 hrs followed by compound addition for 4 days in the presence of artemisinin; format: functional; conditions: time 4 day
[20] = tested on: Plasmodium falciparum; assay: Antiplasmodial activity against chloroquine sensitive Plasmodium falciparum 3D7 assessed as reduction in [3H]-hypoxanthine incorporation by liquid scintillation beta counter analysis; format: functional, organism-based
[21] = Cytotoxicity against human U-937 cells assessed as inhibition of cell growth incubated for 24 hrs by Celltiter-Glo assay; format: toxicity, cell-based

In the case of `O=C(N[C@H](Cc1ccccc1)[C@@H](O)CN1CCN(Cc2ccc(F)cc2)CC1)[C@@H](Cc1ccccc1)N1C(=O)c2ccccc2C1=O`, the IC50 [1] is reported as 2990 nM and the IC50 [2] is reported as 1330 nM.

`CC(C)CC(c1nc2ccccc2n1Cc1cnnn1-c1ccccc1)N1C(=O)c2ccccc2C1=O` (stereo not drawn) gave an IC50 [3] of 700 nM and an IC50 [4] of 900 nM.

In the case of `CC(C)CC(c1nc2ccccc2n1Cc1cnn[nH]1)N1C(=O)c2ccccc2C1=O` (stereo not drawn), the IC50 [3] is reported as 900 nM and the IC50 [4] is reported as 700 nM.

For `CC(C)(C)OC(=O)N[C@H](Cc1ccccc1)[C@@H](O)CN1CCC(N2CCCCC2)CC1`, the IC50 [1] was 2990 nM and the IC50 [2] was 1160 nM.

In the case of `O=C(N[C@H](Cc1ccccc1)[C@@H](O)CN1CCN(C[C@H](O)[C@@H](Cc2ccccc2)NC(=O)[C@@H](Cc2ccccc2)N2C(=O)c3ccccc3C2=O)CC1)[C@@H](Cc1ccccc1)N1C(=O)c2ccccc2C1=O`, the IC50 [1] is reported as 2990 nM and the IC50 [2] is reported as 1300 nM.

`CC[C@H](C)[C@@H](C(=O)N[C@H](Cc1ccccc1)[C@@H](O)CN1CCN(C[C@H](O)[C@@H](Cc2ccccc2)NC(=O)[C@H]([C@@H](C)CC)N2C(=O)c3ccccc3C2=O)CC1)N1C(=O)c2ccccc2C1=O` gave a Ki [5] of 990 nM.

Compound `CC(C)[C@@H](C(=O)N[C@H](Cc1ccccc1)[C@@H](O)CN1CCN(Cc2ccc(Br)cc2)CC1)N1C(=O)c2ccccc2C1=O` has an IC50 [2] of 1250 nM.

With `COc1ccc(N2C(=O)c3cccc(N)c3C2=O)cc1` the inhibition [6] was 74%, the CC50 at 24 h [7] was greater than 250000 nM and the IC50 [8] was 4200 nM. For the same compound, the selectivity ratio [9] was greater than 36.

Work on `Cc1ccc2c(c1)C(=O)N(C(Cc1ccccc1)C(=O)NC(Cc1ccccc1)C(O)CN1CCN(CC(O)C(Cc3ccccc3)NC(=O)C(Cc3ccccc3)N3C(=O)c4ccc(C)cc4C3=O)CC1)C2=O` (stereo not drawn) yielded an IC50 [10] of 600 nM, a Survival [11] of 20 days and a CC50 at 24 h [12] of 11100 nM. For the same compound, the IC50 [13] was 2100 nM, the Ki [14] was 3830 nM and the Ki [5] was 112 nM. It also gave a Ki [15] of 252 nM, an IC50 [16] of 1680 nM and a Ki [17] of 530 nM. It also gave an IC50 [18] of 910 nM, a Survival [19] of 15 days and an IC50 [20] of 1310 nM. It also gave a CC50 at 24 h [21] of 26400 nM.

For `COc1ccc(N2C(=O)c3cccc(NCc4ccccc4)c3C2=O)cc1`, the CC50 at 24 h [7] was greater than 250000 nM, the IC50 [8] was 6800 nM and the selectivity ratio [9] was greater than 59.

Work on `CC(C)[C@H](C(=O)N[C@H](Cc1ccccc1)[C@@H](O)CN1CCN(C[C@H](O)[C@@H](Cc2ccccc2)NC(=O)[C@@H](C(C)C)N2C(=O)c3ccccc3C2=O)CC1)N1C(=O)c2ccccc2C1=O` yielded a Ki [15] of 3300 nM.
